Values of other authors as cited in patent US11534622B2, “Non-invasive systems and methods for selective activation of photoreactive responses” (IMMUNOLIGHT, LLC, priority 2014, dated 2022).
One block for each compound: values may come before it.

Legend:
[1] = clinical use
[2] = orange juice, high UV exposure of 100 mJ/cm^2
tumors = details: in vivo

duration of skin photosensitivity [1]: approximately 2 weeks
Compound: Oc1cccc(-c2c3nc(c(-c4cccc(O)c4)c4ccc([nH]4)c(-c4cccc(O)c4)c4nc(c(-c5cccc(O)c5)c5ccc2[nH]5)CC4)C=C3)c1 [Foscan, Tetra (m-hydroxyphenyl) chlorin]

degradation of Vitamin C [2]: 17%
Compound: O=C1O[C@H]([C@@H](O)CO)C(O)=C1O [Vitamin C]

Compound: CC(=O)[O-].CC(=O)[O-].CCc1c(CC)c2cc3nc(cnc4cc(OCCOCCOCCOC)c(OCCOCCOCCOC)cc4ncc4nc(cc1[n-]2)C(CCCO)=C4C)C(C)=C3CCCO.O.[Lu+3] [Lutetium texaphryin, Motexafin lutetium]
selectivity for tumors compared to normal tissues (tumors): one of the greatest reported selectivities for tumors
